Measured values reported in patent publication US20170049678A1, “COMBINATION OF A HYALURONIC ACID AND OF A SULPHATED POLYSACCHARIDE” (PIERRE FABRE DERMO-COSMETIQUE, priority 2014, published 2017).

Tested on: Normal human fibroblasts (NHF)
Assay: Fibroblast proliferation by BrdU incorporation
Format: cell-based
Conditions: single agent; Ascophyscient 10 and 100 μg/ml, sodium hyaluronate 100 and 1000 μg/ml; 44 hours, DMEM with 3% FCS; FIG. 2
Experimental: The technique used is that of incorporation of a nucleotide, 5-bromo-2′-deoxyuridine (BrdU), a thymidine analog, in the DNA of S-phase cells, at 37° C. This technique makes it possible to quantify cells of which the advance in the cell cycle is characteristic of a proliferating cell (S-phase or DNA synthesis phase). Normal human fibroblasts (NHF), isolated from surgical waste skin, are usually cultivated in Dulbecco's modified Eagle's medium (DMEM) with 10% fetal calf serum (FCS). In our experimental conditions, dilutions of the products to be tested are prepared in DMEM with 3% FCS. The cells are first deprived of FCS for 24 hours to stop cell multiplication before incubating them in the presence of the molecules to be evaluated for 44 hours at 37° C., in a 5% CO2 atmosphere. BrdU incorporation, proportional to cell proliferation rate, is evaluated by an anti-BrdU antibody system (Roche Applied Science). The corresponding absorbance (OD) is measured at 450 nm. This datum is thus proportional to cell proliferation rate. […] Analysis of the Results: • expressed as OD (proportional to BrdU incorporation and thus to cell proliferation rate) • expressed as percent stimulation: [formula] • expressed as standard error of the mean: SEM=standard deviation (SD)/√n Statistical analyses using unpaired bilateral Student's t-test were carried out on the raw OD values. […]

How did the “fibroblast proliferation (BrdU incorporation, OD 450 nm)” value turn out when sodium hyaluronate was run?
Its value is “moderate effect on fibroblast proliferation”.
